Columns and labels:
[1] = target: Human Lymphocyte PDE IV; assay: Human Lymphocyte cAMP Phosphodiesterase Assay (inhibition of PDE IV); format: biochemical; conditions: Inhibition of Human Lymphocyte PDE IV (human B cell line 43D supernatant)
Method: Human B cell line (43D) was cultured at 37°C in 7% CO2 in RPMI 1640 with L-glutamine and 10% Nu-Serum. Prior to the assay ∼1.5x10^8 cells were centrifuged at 1000 rpm for 10 minutes in a table top clinical centrifuge. The pellet was resuspended in 2-3 ml of 45 mM Tris-HCl buffer, pH 7.4. The suspension was homogenized and centrifuged at 12,000 x g 4°C for 10 minutes. The supernatant was diluted to 28 ml with Tris-HCl buffer and used directly in the assay or stored at -20°C. The final concentration of DMSO in the PDE incubation medium was 1%. Nitraquazone was included in each assay (10 and 100µM) as a reference standard.
The phosphodiesterase incubation medium contained 10 mM Tris-HCl buffer, pH 7.7, 10 mM MgSO4, 0.1-1µM […] (0.2 µCi) in a total volume of 1.0 ml. Following addition of the enzyme, the contents were mixed and incubated for 10 min at 30°C. The reaction was terminated by immersing the tubes in a boiling-water bath for 90 sec. After the tubes were cooled in an ice-water bath, 0.1 ml (100µg) of 5'-nucleotidase from snake venom (Crotalus atrox, Sigma V-7000) was added to each tube. The contents were mixed and incubated for 30 min at 30°C. The nucleotidase reaction was terminated by immersing the tubes in a boiling water bath for 60 sec. […]

[2] = tested on: plaque-forming cells (PFC); assay: Hemolytic Plaque Forming Cell (PFC) Assay, immunosuppressive activity; format: in vivo, C3H female mice; conditions: Mus musculus, 96 h; oral dosage form; mice sensitized with SRBC; spleens taken four days after SRBC inoculation; read-out: ED50 (Immune PFC)
Text: This procedure is a modification of "The agar plaque technique for recognizing antibody producing cells," a procedure initially described by Jerne, et al. [Cell-bound Antibodies, Amos and Kaprowski editors (Wistar Institute Press, Philadelphia, 1963) p. 109].
Groups of 5-6 adult C3H female mice were sensitized with 1.25 x 10^8 sheep red blood cells (SRBC) and simultaneously treated with an oral dosage form of the test material in an aqueous vehicle. Animals in a control group receive the same volume of vehicle. Four days after SRBC inoculation, spleens are dispersed in glass homogenizers. The number of nucleated cells (WBC) is determined and the spleen cell suspension is mixed with SRBC, guinea pig complement and agar solution at 0.5% concentration. Aliquots of the above mixture (0.1 ml) are dropped on four separate quadrants of a Petri dish and are covered with cover slips. After two hours incubation at 37°C, areas of hemolysis around plaque-forming cells (PFC) are counted with a dissecting microscope. Total WBC/spleen, PFC/spleen and PFC/10^6 WBC (PPM) are calculated for each mouse spleen. Geometric means of each treatment group are then compared with the vehicle-treated control group.

[3] = tested on: Human PBL; assay: Mitogenic response of human peripheral blood lymphocytes to concanavalin A (3H-thymidine uptake); format: cell-based; conditions: Lymphocyte, concanavalin A 2 µg/ml, 48 hours, read-out: % Suppression
Method: This procedure is a modification of a procedure initially described by Greaves, et al. ["Activation of human T and B lymphocytes by polyclonal mitogens," Nature, 248, 698-701 (1974)].
Human mononuclear cells (PBL) are separated from heparinized whole blood by density gradient centrifugation in Ficoll-Paque (Pharmacia). After washing, 5 x 10^4 cells/well are cultured in microtiter plates with minimal essential media supplemented with 1% human serum, gentamicin, sodium bicarbonate, 2-mercaptoethanol, glutamine, non-essential amino acids, and sodium pyruvate. The mitogen concanavalin A (Sigma) is used at a concentration of 2 µg/ml. Test materials are tested at concentrations between 10^-4 and 10^-10 M, by addition to the culture at time 0. Cultures are set up in quadruplicate and incubated at 37°C in a humidified atmosphere with 5% CO2 for 48 hours. A pulse of 1.0 µCi/well of ^3H-thymidine is added for the last 4 hours. Cells are collected on glass fiber filters with an automatic harvester and radioactivity is measured by standard scintillation procedures. The 50% inhibitory concentration ("IC50") for mitogenic stimulation is determined graphically. The compounds of the present invention show immunosuppressive activity when tested by this method.
The % suppression represents test well counts minus background (wells with no concanavalin A) divided by control well counts (wells with no compound) minus background times 100.

[4] = tested on: Arachidonic Acid-Induced Ear Edema (AAEE); assay: Arachidonic Acid-Induced Ear Edema (AAEE) in the mouse, anti-inflammatory activity; format: in vivo, Female Charles River ICR mice; conditions: 1 h, ear plug weight one hour after arachidonic acid challenge
Method: This procedure is a modification of a procedure described by Young et al., J. Invest. Derm., 82:367-371 (1984).
Female Charles River ICR mice 23-27 grams are administered 0.2 ml of test material. The mice are later challenged with 20 µl of arachidonic acid applied topically to the ear. One hour after challenge, the weight of an 8 mm disc is determined. The mean increase in ear plug weight is calculated. Materials with anti-inflammatory activity inhibit the increase in ear plug weight.

[5] = tested on: mice; assay: Toxicology, 2 weeks dosing in mice; format: in vivo; conditions: 3 to 25 mg/kg/day

SMILES | IC50 [1] [pM] | ED50 [2] [mg/kg] | inhibition at 0.1 µM [3] [%] | inhibition at 1 µM [3] [%] | inhibition at 10 µM [3] [%] | inhibition at 100 µM [3] [%] | ED50 [4] [mg/kg] | CONCLUSION (mortality) [5]
O=c1c2cccnc2c(-c2cccc([N+](=O)[O-])c2)nn1Cc1ccncc1 [Compound I, 6-(4-pyridylmethyl)-8-(3-nitrophenyl)pyrido[2,3-d]pyridazin-5-one] | 230 | 1 | 83 | 80 | 85 | 100 | 0.003 | no mortality occurred at any of the dose levels tested.
O=c1c2cccnc2c(-c2cccc(Cl)c2)nn1Cc1ccncc1 [Compound II, 6-(4-pyridylmethyl)-8-(3-chlorophenyl)pyrido[2,3-d]pyridazin-5-one] | 1000 | 3 | 74 | 83 | 87 | 100 | 0.009 | no mortality occurred at any of the dose levels tested.
